Reference: patent EP0450573A2, “Antibodies for the treatment and diagnosis of Pseudomonas aeruginosa infections” (priority 1990, dated 1991)

Tested on: P. aeruginosa strain FI-6(A366)
Assay: Opsonophagocytic assay (bactericidal activity with complement and polymorphonuclear cells)
Format: cell-based
Conditions: cefepime alone, 0 µg/ml 6D7 data point of Figure 1
Protocol: Overnight cultures of P. aeruginosa FI-6 in adjusted Miller-Hinton broth containing 50 mg/l calcium chloride and 25 mg/l magnesium chloride were innoculated into media lacking or containing 1 µg/ml amikacin; this concentration of antibiotic allows almost normal growth of the bacterial culture. The bacterial cultures were incubated until mid-logarithmic phase of growth was attained, and then the bacteria were harvested by centrifugation, and resuspended to 5 x 10⁴ cells/ml in gelatin veronal buffer. […] Opsonic activity of antibodies directed against amikacin-treated bacteria was determined in the presence of 1 µg/ml amikacin. […] The amount of bacterial killing, was determined by plating 25 µl from each tube onto solid agar, growing the plated bacteria overnight, and counting the number of colonies on the plate. […]
The opsonophagocytic activity of varying amounts of monoclonal antibody 6D7 towards P. aeruginosa strain FI-6 cells was determined in the presence or absence of subinhibitory concentrations of the antibiotic, cefepime. […]

Compound: CO/N=C(\C(=O)N[C@@H]1C(=O)N2C(C(=O)[O-])=C(C[N+]3(C)CCCC3)CS[C@H]12)c1csc(N)n1 [cefepime]
- survival: 100%
